The values below come from ChEMBL document CHEMBL1123826, “Nitrogen bridgehead compounds. 66. Bronchodilator nitrogen bridgehead compounds with a pyrimidinone moiety” (J Med Chem, 1987).

In data set [1] the test system is Cavia porcellus. The experiment in a line: Compound was tested for Bronchodilator activity against serotonin-induced spasm in guinea pig by Konzett-Rossler test; dose administered by intraduodenal route. The conditions noted are these: read-out: ID50 (the source's name). Format: functional.
The test system of data set [2] is Cavia porcellus. The experiment in a line: Compound was tested for Bronchodilator activity against acetylcholine-induced spasm in guinea pig by Konzett-Rossler test; dose administered by intraduodenal route. Format: functional. Conditions: read-out: ID50 (the source's name).
For data set [3], the system named is Cavia porcellus. Put plainly: Compound was tested for Bronchodilator activity against histamine-induced spasm in guinea pig by Konzett-Rossler test; dose administered by intraduodenal route. Conditions: read-out: ID50 (the source's name). Format: functional.
Data set [4] is filed under the species Cavia porcellus. Put plainly: […] activity was evaluated by inhibition of nicotinate induced spasm in isolated guinea pig ileum. It is filed as functional.
The species entered for data set [5] is Homo sapiens. Put plainly: Compound was tested for Bronchodilator activity against isolated human bronchus contracted by carbachol. It is filed as functional.
The species named for data set [6] is Cavia porcellus. The experiment in a line: […] activity was evaluated by inhibition of BaCl2 induced spasm in isolated guinea pig ileum. Format: functional.
Data set [7] is filed under the species Cavia porcellus. The experiment in a line: […] activity was evaluated by inhibition of histamine induced spasm in isolated guinea pig ileum. It is filed as functional.
The species entered for data set [8] is Cavia porcellus. The experiment in a line: […] activity was evaluated by inhibition of acetylcholine induced spasm in isolated guinea pig ileum. It is filed as functional.
The species entered for data set [9] is Cavia porcellus. Put plainly: […] activity was evaluated by inhibition of serotonin induced spasm in isolated guinea pig ileum. Format: functional.
The species entered for data set [10] is Cavia porcellus. Put plainly: Compound was tested for Anticholenergic activity on isolated guinea pig trachea contracted by carbachol. Format: functional. The conditions noted are these: for Kb: read-out: pA2 (converted).
Data set [11] in a line: Ratio of pA2 to pD2 was determined on isolated guinea pig trachea. It is filed as functional.
Data set [12] can be described thus: Relative potency is ratio of IC50 of theophylline / IC50 was determined. Format: functional.
The species named for data set [13] is Cavia porcellus. The experiment in a line: Bronchodilator activity against histamine-induced spasm in guinea pig. Conditions: read-out: ID50 (the source's name). It is filed as functional.
Data set [14] is filed under the species Cavia porcellus. Put plainly: Compound was tested for Bronchodilator activity against acetylcholine-induced spasm in guinea pig by Konzett-Rossler test. It is filed as organism-based. The conditions noted are these: in vivo.
Data set [15] is filed under the species Cavia porcellus. Put plainly: Bronchodilator activity against serotonin-induced spasm in guinea pig. Conditions: read-out: ID50 (the source's name). It is filed as functional.
The species entered for data set [16] is Homo sapiens. Put plainly: compound was tested for Bronchodilator activity against isolated human bronchus contracted by carbachol. It is filed as functional.
The species entered for data set [17] is Cavia porcellus. The experiment in a line: Bronchodilator activity against acetylcholine-induced spasm in guinea pig. It is filed as functional. The conditions noted are these: read-out: ID50 (the source's name).
Data set [18] has as its system Cavia porcellus. The experiment in a line: Compound was tested for Bronchodilator activity against serotonin-induced spasm in guinea pig by Konzett-Rossler test; dose administered by intraduodenal route. Format: functional. The conditions noted are these: read-out: ID50 (the source's name).
Data set [19] concerns Cavia porcellus. The experiment in a line: Compound was tested for Bronchodilator activity against acetylcholine-induced spasm in guinea pig by Konzett-Rossler tes; dose administered by intraduodenal route. The conditions noted are these: read-out: ID50 (the source's name). It is filed as functional.
Data set [20] in a line: Relative potency calculated from ratio of IC50 of theophylline / IC50 was determined. It is filed as functional.
The mark [21] stands for this setting: Homo sapiens, Bronchus, read-out: IC50.

As for `Cc1cccc2c(=O)n3c(nc12)CCCCC3`, the ED50 with Cavia porcellus [1], in the data set on Cavia porcellus [2] and in the data set with Cavia porcellus [3] was above 32 µmol/kg each time.

For `O=c1c2c(nc3n1CCCCC3)CCC2`, the IC50 was 75 µM in the data set filed under Cavia porcellus [4]; 15.2 µM in the data set listed under Homo sapiens [5]; 113 uM l-1 in the data set listed under Cavia porcellus [6]; above 100 µM in the data set listed under Cavia porcellus [7]; 2.53 µM in the data set filed under Cavia porcellus [8]; 112 uM l-1 in the data set listed under Cavia porcellus [9]. The pD2 in the data set listed under Cavia porcellus [10] was determined as 5.37. Also, the Kb in the data set listed under Cavia porcellus [10] is 0.229 µM. In data set [11], the Ratio was 1.23. For the same compound, in data set [12], the Relative potency is 9.93.

Take `O=c1nc2n(c3c1CCCCC3)CCC2`: the ED50 in the data set listed under Cavia porcellus [13] and in the data set listed under Cavia porcellus [15] was above 32 µmol/kg throughout. For the same compound, the ID50 in the data set filed under Cavia porcellus [14] was above 32 µM/kg.

Consider `CC1CCn2c(nc3c(c2=O)CCC3)C1` (stereo not drawn), for which the ED50 turned out to be 18.9 µmol/kg in the data set filed under Cavia porcellus [13], 22.5 µmol/kg in the data set filed under Cavia porcellus [15] and 56.4 µmol/kg in the data set filed under Cavia porcellus [17]. The same compound registered an IC50 in the data set filed under Homo sapiens [16] of 141 uM l-1. In addition, in data set [12], the Relative potency was determined as 1.07.

Turning to `CCOC(=O)c1ccc2c(=O)n3c(nc2c1)CCCCC3`, the ED50 stood at 24.5 µmol/kg with Cavia porcellus [2], 32 µmol/kg with Cavia porcellus [3] and 10 µmol/kg in the data set on Cavia porcellus [18].

With `Cc1cccn2c(=O)c3c(nc12)CCCC3`, the ED50 in the data set listed under Cavia porcellus [13] amounted to 7 µmol/kg; in the data set filed under Cavia porcellus [15], 15.6 µmol/kg; in the data set filed under Cavia porcellus [17], 15.7 µmol/kg. Besides, the IC50 in the data set filed under Homo sapiens [16] (setting [21]) is 66.6 µM. Moreover, the Relative potency in data set [12] amounted to 2.26.

For `CC1CCCCn2c1nc1c(c2=O)CCCC1` (stereo not drawn), the ED50 in the data set on Cavia porcellus [1], in the data set with Cavia porcellus [2] and in the data set with Cavia porcellus [3] was above 320 µmol/kg each time.

For `Cl.O=c1c2c(nc3n1CCCCC3)CCCC2`, the IC50 in the data set listed under Cavia porcellus [4] was 49.5 µM; in the data set listed under Homo sapiens [5] it was 5.4 µM; in the data set filed under Cavia porcellus [6], 123 uM l-1; in the data set filed under Cavia porcellus [7], above 100 µM; in the data set filed under Cavia porcellus [8], 5.01 µM; in the data set listed under Cavia porcellus [9], 752 uM l-1. For the same compound, the pD2 in the data set filed under Cavia porcellus [10] is 5.39. Moreover, the Kb in the data set listed under Cavia porcellus [10] was 1.91 µM. Moreover, in [11], the Ratio amounted to 1.06.

Consider `CCc1c(C)nc2n(c1=O)CCC(C)C2` (stereo not drawn), for which the results for the ED50 in the data set listed under Cavia porcellus [13], in the data set filed under Cavia porcellus [15] and in the data set listed under Cavia porcellus [17] were 23.2 µmol/kg, 18.4 µmol/kg and 28.2 µmol/kg, respectively. In addition, in the data set filed under Homo sapiens [16] (setting [21]), the IC50 was found to be 74.6 µM. The Relative potency in data set [12] worked out at 2.02.

`CC1CCCCc2nc3c(c(=O)n21)CCCC3` (stereo not drawn): the ED50 in the data set on Cavia porcellus [1], in the data set with Cavia porcellus [19] and in the data set on Cavia porcellus [3] was above 320 µmol/kg in each case.

For `COC(=O)c1ccc2nc3n(c(=O)c2c1)CCCCC3`, the ED50 in the data set with Cavia porcellus [1] was 32 µmol/kg; with Cavia porcellus [2], above 32 µmol/kg; with Cavia porcellus [3], 32 µmol/kg.

`O=c1c2c(nc3n1CCCCC3)CCCC2`: the Relative potency in [20] was 28.
